Where “and” joins values, the source holds several entries; their conditions need not be identical. Equal values may be shown once.
Tested on: C57BL/6 mice, Adenocarcinoma 755 sc, tumor weight T/C
Assay: NCI In Vivo Anticancer Drug Screen. Data for tumor model Adenocarcinoma 755 (subcutaneous) in C57BL/6 mice
Conditions: endpoint: mean tumor weight, higher = larger tumour
Method: The antitumor activity of compounds was measured in mice bearing transplantable tumors. Survival or tumor size were measured and the results are expressed as the measurement made in the treated group (T) divided by the measurement made in the vehicle treated control group (C). The tumor model used in this assay is Adenocarcinoma 755 (subcutaneous) in C57BL/6 mice

[1] = dose: 75.0 mg/kg/injection, schedule: Q02DX006 (ip), vehicle: other
[2] = dose: 10.0 mg/kg/injection, schedule: Q01DX011 (ip), vehicle: saline
[3] = dose: 15.0 mg/kg/injection, schedule: Q01DX011 (ip), vehicle: saline
[4] = dose: 20.0 mg/kg/injection, schedule: Q01DX011 (ip), vehicle: saline
[5] = dose: 75.0 mg/kg/injection, schedule: Q01DX011 (ip), vehicle: saline
[6] = dose: 100.0 mg/kg/injection, schedule: Q01DX011 (ip), vehicle: saline
[7] = dose: 200.0 mg/kg/injection, schedule: Q01DX011 (ip), vehicle: saline
[8] = dose: 300.0 mg/kg/injection, schedule: Q01DX011 (ip), vehicle: saline
[9] = dose: 250.0 mg/kg/injection, schedule: Q01DX011 (ip), vehicle: saline
[10] = dose: 500.0 mg/kg/injection, schedule: Q01DX011 (ip), vehicle: saline
[11] = dose: 1000.0 mg/kg/injection, schedule: Q01DX011 (ip), vehicle: saline
[12] = dose: 2000.0 mg/kg/injection, schedule: Q01DX011 (ip), vehicle: saline
[13] = dose: 50.0 mg/kg/injection, schedule: Q01DX011 (ip), vehicle: carboxymethylcellulose (CMC)
[14] = dose: 12.5 mg/kg/injection, schedule: Q01DX011 (ip), vehicle: saline
[15] = dose: 25.0 mg/kg/injection, schedule: Q01DX011 (ip), vehicle: saline
[16] = dose: 50.0 mg/kg/injection, schedule: Q01DX011 (ip), vehicle: saline
[17] = dose: 125.0 mg/kg/injection, schedule: Q01DX011 (ip), vehicle: saline
[18] = dose: 225.0 mg/kg/injection, schedule: Q02DX006 (ip), vehicle: water
[19] = dose: 25.0 mg/kg/injection, schedule: Q01DX011 (ip), vehicle: carboxymethylcellulose (CMC)
[20] = dose: 10.0 mg/kg/injection, schedule: Q02DX006 (ip), vehicle: saline

SMILES: [N-]=[N+]=CC(=O)CCC(N)C(=O)O (stereo not drawn)
- T/C (dose: 0.04 mg/kg/injection, schedule: Q01DX011 (ip), vehicle: saline): 110 % of control
- T/C (dose: 0.05 mg/kg/injection, schedule: Q01DX011 (ip), vehicle: saline): 22 % of control
- T/C (dose: 0.08 mg/kg/injection, schedule: Q01DX011 (ip), vehicle: saline): 46 % of control
- T/C (dose: 25.0 micrograms/kg/injection, schedule: Q01DX011 (ip), vehicle: saline): 39 % of control
- T/C (dose: 50.0 micrograms/kg/injection, schedule: Q01DX011 (ip), vehicle: saline): 45 % of control

SMILES: O=c1[nH]cc(Br)c(=O)[nH]1
- T/C (dose: 50.0 mg/kg/injection, schedule: Q02DX006 (ip), vehicle: other): 56 % of control
- T/C [1]: 71 % of control

SMILES: O=P1(N(CCF)CCF)NCCCO1 (stereo not drawn)
- T/C (dose: 0.94 mg/kg/injection, schedule: Q01DX011 (ip), vehicle: saline): 40 % of control
- T/C (dose: 1.88 mg/kg/injection, schedule: Q01DX011 (ip), vehicle: saline): 56 % of control
- T/C (dose: 3.75 mg/kg/injection, schedule: Q01DX011 (ip), vehicle: saline): 22 % of control

SMILES: CCCNc1ncnc2c1cnn2C
- T/C [2]: 46 % of control
- T/C [3]: 32 % of control
- T/C [4]: 13 % of control

SMILES: CSc1nc(N)nc2nc[nH]c12
- T/C [2]: 1 % of control
- T/C [3]: 1 % of control

SMILES: CS(=O)(=O)OCCC(=O)N1CCN(C(=O)CCOS(C)(=O)=O)CC1
- T/C (dose: 6.25 mg/kg/injection, schedule: Q01DX011 (ip), vehicle: methylcellulose (MC)): 83 % of control
- T/C (dose: 12.5 mg/kg/injection, schedule: Q01DX011 (ip), vehicle: methylcellulose (MC)): 86 % of control
- T/C (dose: 25.0 mg/kg/injection, schedule: Q01DX011 (ip), vehicle: methylcellulose (MC)): 55 % of control

SMILES: Clc1ccccc1CSc1ncnc2nc[nH]c12
- T/C [5]: 13 % of control
- T/C [6]: 5 % of control
- T/C (dose: 150.0 mg/kg/injection, schedule: Q01DX011 (ip), vehicle: saline): 1 % of control
- T/C [7]: 13 % of control

SMILES: c1ccc2nc(-c3cc4ccccc4s3)ccc2c1
- T/C [8]: 11 % of control

SMILES: CN(CC(=O)O)C(=N)N
- T/C [9]: 105 % of control
- T/C [10]: 110 % of control
- T/C [11]: 57 % of control
- T/C [12]: 102 % of control

SMILES: Cn1cnc2[nH]cnc(=S)c21
- T/C [13]: 110 % of control
- T/C [7]: 45 % of control
- T/C [8]: 30 % of control
- T/C (dose: 400.0 mg/kg/injection, schedule: Q01DX011 (ip), vehicle: saline): 22 % of control

SMILES: O=c1[nH]c(=O)n(C2CC(O)C(CO)O2)cc1C(F)(F)F (stereo not drawn)
- T/C [14]: 81 % of control
- T/C [15]: 52 % of control
- T/C [16]: 27 % of control
- T/C [6]: 27 % of control

SMILES: N/C(=N\N=C\c1cccc([N+](=O)[O-])c1)N[N+](=O)[O-]
- T/C (dose: 150.0 mg/kg/injection, schedule: Q02DX006 (ip), vehicle: saline): 24 % of control
- T/C (dose: 200.0 mg/kg/injection, schedule: Q02DX006 (ip), vehicle: saline): 41 % of control

SMILES: Cn1c(N)nc2nc[nH]c2c1=S
- T/C (dose: 1.0 mg/kg/injection, schedule: Q01DX008 (iv), vehicle: saline): 169 % of control
- T/C (dose: 2.0 mg/kg/injection, schedule: Q01DX008 (iv), vehicle: saline): 173 % of control
- T/C (dose: 4.0 mg/kg/injection, schedule: Q01DX008 (iv), vehicle: saline): 79 % of control
- T/C (dose: 32.0 mg/kg/injection, schedule: Q01DX008 (iv), vehicle: saline): 67 % of control
- T/C (dose: 64.0 mg/kg/injection, schedule: Q01DX008 (iv), vehicle: saline): 65 % of control

SMILES: CNC=O
- T/C [15]: 92 % of control
- T/C [16]: 112 % of control
- T/C [6]: 64 % of control and 82 % of control
- T/C [17]: 98 % of control
- T/C (dose: 175.0 mg/kg/injection, schedule: Q02DX006 (ip), vehicle: water): 40 % of control
- T/C [7]: 9 % of control and 30 % of control
- T/C [18]: 56 % of control

SMILES: O=C(O)CCCCC1NC(=O)CS1 (stereo not drawn)
- T/C [18]: 91 % of control
- T/C (dose: 275.0 mg/kg/injection, schedule: Q02DX006 (ip), vehicle: water): 101 % of control

SMILES: O=C([O][Hg][CH2]C1COC([CH2][Hg][O]C(=O)c2ccccc2)CO1)c1ccccc1 (stereo not drawn)
- T/C (dose: 16.0 mg/kg/injection, schedule: Q01DX009 (ip), vehicle: saline): 82 % of control
- T/C (dose: 32.0 mg/kg/injection, schedule: Q01DX009 (ip), vehicle: saline): 77 % of control
- T/C (dose: 32.0 mg/kg/injection, schedule: Q01DX010 (ip), vehicle: saline): 48 % of control

SMILES: S=c1nc[nH]c2nc[nH]c12.[Cd]
- T/C (dose: 0.1 mg/kg/injection, schedule: Q01DX011 (ip), vehicle: saline): 60 % of control
- T/C (dose: 0.2 mg/kg/injection, schedule: Q01DX011 (ip), vehicle: saline): 76 % of control
- T/C (dose: 0.4 mg/kg/injection, schedule: Q01DX011 (ip), vehicle: saline): 60 % of control
- T/C (dose: 0.8 mg/kg/injection, schedule: Q01DX011 (ip), vehicle: saline): 49 % of control

SMILES: Nc1nc(=O)[nH]c2n[nH]nc12
- T/C (dose: 5.0 mg/kg/injection, schedule: Q01DX011 (ip), vehicle: carboxymethylcellulose (CMC)): 82 % of control
- T/C (dose: 10.0 mg/kg/injection, schedule: Q01DX011 (ip), vehicle: carboxymethylcellulose (CMC)): 79 % of control
- T/C [19]: 64 % of control

SMILES: N=C(N)CCNC(=O)C1CCC(N)=N1 (stereo not drawn)
- T/C (dose: 4.0 mg/kg/injection, schedule: Q02DX006 (ip), vehicle: saline): 59 % of control
- T/C (dose: 6.0 mg/kg/injection, schedule: Q02DX006 (ip), vehicle: saline): 29 % of control and 53 % of control
- T/C [20]: 44 % of control

SMILES: CN1CC(=O)NC1=O
- T/C [9]: 49 % of control
- T/C [10]: 68 % of control
- T/C [11]: 41 % of control
- T/C [12]: 70 % of control

SMILES: Cc1ccc(N2CCN(CCCN3CCN(c4ccc(Cl)cc4)CC3)CC2)cc1
- T/C (dose: 3.1 mg/kg/injection, schedule: Q01DX011 (ip), vehicle: carboxymethylcellulose (CMC)): 93 % of control
- T/C (dose: 6.25 mg/kg/injection, schedule: Q01DX011 (ip), vehicle: carboxymethylcellulose (CMC)): 83 % of control
- T/C (dose: 12.5 mg/kg/injection, schedule: Q01DX011 (ip), vehicle: carboxymethylcellulose (CMC)): 90 % of control
- T/C [19]: 52 % of control
- T/C [13]: 43 % of control

SMILES: CCCCNc1ncnc2[nH]ncc12
- T/C [3]: 31 % of control
- T/C [4]: 7 % of control
- T/C [15]: 24 % of control

SMILES: S=c1nc[nH]c2n[nH]nc12
- T/C (dose: 30.0 mg/kg/injection, schedule: Q02DX006 (ip), vehicle: other): 70 % of control
- T/C [1]: 14 % of control

SMILES: CC[N+](CC)(CC)CCO
- T/C (dose: 5.0 mg/kg/injection, schedule: Q02DX006 (ip), vehicle: saline): 51 % of control
- T/C [20]: 25 % of control
- T/C (dose: 15.0 mg/kg/injection, schedule: Q02DX006 (ip), vehicle: saline): 33 % of control

SMILES: CC(=O)OCC(=O)[C@@]1(O)CC[C@H]2[C@@H]3CCC4=CC(=O)CC[C@]4(C)[C@H]3C(=O)C[C@@]21C
- T/C (dose: 40.0 mg/kg/injection, schedule: Q01DX011 (sc), vehicle: saline): 24 % of control
- T/C (dose: 45.0 mg/kg/injection, schedule: Q01DX011 (sc), vehicle: saline): 43 % of control
- T/C (dose: 50.0 mg/kg/injection, schedule: Q01DX011 (sc), vehicle: saline): 16 % of control
- T/C (dose: 60.0 mg/kg/injection, schedule: Q01DX011 (sc), vehicle: saline): 15 % of control and 39 % of control
- T/C (dose: 100.0 mg/kg/injection, schedule: Q01DX011 (sc), vehicle: saline): 8 % of control

SMILES: CCn1cnc2c(Cl)ncnc21
- T/C [15]: 29 % of control
- T/C [16]: 10 % of control
- T/C [6]: 1 % of control

SMILES: NNc1nc2nc[nH]c2c(=O)[nH]1
- T/C [16]: 35 % of control

SMILES: CCCCNc1nc(N(C)C)nc2nc[nH]c12
- T/C (dose: 37.0 mg/kg/injection, schedule: Q01DX011 (ip), vehicle: saline): 80 % of control
- T/C [5]: 29 % of control
- T/C (dose: 90.0 mg/kg/injection, schedule: Q01DX011 (ip), vehicle: saline): 56 % of control
- T/C [17]: 47 % of control

SMILES: O=P1(N(CCF)CCCl)NCCCO1 (stereo not drawn)
- T/C (dose: 6.25 mg/kg/injection, schedule: Q01DX011 (ip), vehicle: saline): 76 % of control
- T/C [14]: 94 % of control
- T/C [15]: 66 % of control
- T/C [16]: 88 % of control

— PubChem BioAssay AID218 (DTP/NCI, 2004)
